In publication PMC12016938, “A small molecule PKCε inhibitor reduces hyperalgesia induced by paclitaxel or opioid withdrawal” (JCI Insight, 2025):
“And” between values parts separate entries of the source, which are not always exact repeats. Identical values can stand only once. “Also recorded” adds a separate entry of the source.

Columns and labels:
PKCζ = target: T1, PKCζ (Homo sapiens, UniProt Q05513); test: Lance-FRET kinase assay, PKCζ; type: biochemical; conditions: Figure 1B
T1 construct: purchased SignalChem Biotech
Procedure: Kinase assays. CP612 was assayed against His-AVI–tagged human PKCε (1 nM) produced in Sf9 cells, and ROCK1 (Carna Biosciences; 5 nM) using the Lance-FRET kinase assay system (PerkinElmer Revvity). Other human recombinant PKCs (SignalChem Biotech) were assayed in triplicate at the following concentrations: PKCβII 1.6 nM, PKCγ 500 pM, PKCδ 5 nM, PKCθ 500 pM, and PKCζ 500 pM. PKCs were incubated in a 15 μL reaction volume with kinase buffer (20 mM Tris-HCL [pH 7.4], 10 mM MgCl2, 0.25 mM EGTA, 0.1 mg/mL BSA, and 0.15% Triton X-100), 50 nM ULight-labeled CREBtide […] (PerkinElmer, TRF0107, Revvity), and test compound. […] After incubation at 27°C for another 60 minutes, phosphorylation was detected using a FlexStation 3 Microplate Reader (Molecular Devices) in LANCE TR-FRET mode (excitation = 340 nm, emission = 665 nm) and expressed as relative fluorescence units (RFU). The percentage of inhibition was calculated as: (signal without test compound − signal with test compound)/(signal without test compound − signal without ATP) × 100. […]
Kinase assays used 11-point concentration-response curves and results were analyzed by nonlinear regression using Prism 9 (GraphPad Software) to determine IC50 values. […] Scores for pain threshold, conditioned place preference, and self-administration were analyzed by ANOVA using the following factors. […]

[1] = tested on: somatic signs of morphine withdrawal; test: Somatic signs of morphine withdrawal precipitated by naloxone; type: in vivo, DBA/2J mice; set-up: key to Score: Rearing / Score: Teeth chatter / Score: Body shakes / Score: Wall climbing / Score: Backpedaling / Score: Hopping: score of 1 per occurrence and episode; key to Global Withdrawal Score (sum of all scores): sum of behavior scores, 1 point per occurrence/episode; conditions: for Global Withdrawal Score (sum of all scores) / Score: Backpedaling / Score: Body shakes / Score: Hopping / Score: Rearing / Score: Teeth chatter / Score: Wall climbing: individual mice, 20 min interval; for Global Withdrawal Score (sum of all scores): after naloxone (5 mg/kg, i.p.); for Score: Backpedaling / Score: Body shakes / Score: Hopping / Score: Rearing / Score: Teeth chatter / Score: Wall climbing: number of observations after naloxone (5 mg/kg, i.p.)
Procedure: In addition to hyperalgesia, withdrawal from repeated administration of morphine produces somatic signs of withdrawal and conditioned place aversion. We tested the effects of CP612 on these responses. […] Two hours after this last injection of saline or morphine, mice were administered naloxone (5 mg/kg, i.p.) to precipitate somatic signs of withdrawal and conditioned place aversion. Withdrawal from repeated administration of morphine evoked somatic signs of withdrawal (Figure 11, A–C, and Supplemental Figure 2); only the highest dose of CP612 (40 mg/kg) reduced them (Figure 11, A–C) [H PKC inhibition (3, n = 62) = 33.34, P < 0.001]. Withdrawal from repeated administration of morphine also evoked conditioned place aversion (Figure 11, A and C) [F PKC inhibition (5,78) = 7.16, P < 0.001; mice receiving repeated administration of saline with vehicle versus mice receiving repeated administration of morphine with vehicle, P < 0.001], and this was not modified by CP612 at any dose tested (all P > 0.079).
The place conditioning apparatus was an acrylic box enclosed in light- and sound-attenuating, ventilated chambers (MED Associates). The box had 2 compartments separated by a removable sliding door. […] The dimensions of each compartment were 13.5 × 27 × 17 cm. Infrared light beams and photodetectors located along the walls of the box measured general activity and location of the mouse in each compartment, which were recorded using Activity Monitor version 7.0.5.10 software (Med Associates). On day 0 (pretest), drug-naive mice were acclimated for 15 minutes to the place conditioning apparatus without the sliding door, so they had free access to both compartments of the apparatus. This established a baseline side preference, based on the amount of time spent in each compartment. […] On day 6 (conditioning day), mice were pretreated with vehicle (10 mL/kg, i.p.) or CP612 (5, 10, 20, or 40 mg/kg, i.p.), followed by a single injection of morphine (100 mg/kg, i.p.) 4 hours later. Two hours after this last injection of morphine, mice were administered naloxone (5 mg/kg, i.p.), to precipitate withdrawal, and were immediately confined to 1 side of the conditioning apparatus for 20 minutes. During this conditioning period, mice were filmed (Raspberry Pi Camera) to assess somatic signs of withdrawal ([39]). Given the limited number of cameras and the poor quality of some videos, we were only able to film a subset of mice. The following behaviors were given a score of 1 per occurrence and episode: body shakes (paw tremors and wet dog shakes), teeth chatter, rearing, hopping, wall climbing, and backpedaling. These scores were summed to obtain a global withdrawal score and were obtained from an independent observer who was blind to the experimental conditions. A subset of videos was scored by 2 observers, to ensure internal validity (Cronbach’s α = 0.980, Correlation Observer r = 0.97, slope 1.15, P < 0.005). On day 7 (test day), mice were placed in the conditioning apparatus with free access to both compartments, for 15 minutes. We recorded the time spent in each compartment.
Gregory-Flores et al. (Supplementary Table and Figures)
Figure S2. Behavioral scores of morphine withdrawal precipitated by naloxone. Male mice

PKCδ = PKCδ (Homo sapiens, UniProt Q05655); test: scanMax kinome panel, PKCδ; type: binding; set-up: purchased Eurofins-DiscoverX; conditions: 200 nM CP612; read-out: scanMax % of control, PKCδ
Procedure: CP612 was screened for kinome specificity at 200 nM against 468 kinases using the scanMax assay panel from Eurofins-DiscoverX. CP612 inhibited 10 other WT kinases besides PKCε, all to < 10% of control: CLK1 (CDC Like Kinase 1), CLK4, PKN1 (Protein kinase N1), PKN2, PKCδ, PKCη, PKCθ, PRKG2 (Protein Kinase CGMP-Dependent 2), ROCK1, and ROCK2.

[2] = tested on: morphine self-administration

Sequence of PKCδ (Q05655 whole entry): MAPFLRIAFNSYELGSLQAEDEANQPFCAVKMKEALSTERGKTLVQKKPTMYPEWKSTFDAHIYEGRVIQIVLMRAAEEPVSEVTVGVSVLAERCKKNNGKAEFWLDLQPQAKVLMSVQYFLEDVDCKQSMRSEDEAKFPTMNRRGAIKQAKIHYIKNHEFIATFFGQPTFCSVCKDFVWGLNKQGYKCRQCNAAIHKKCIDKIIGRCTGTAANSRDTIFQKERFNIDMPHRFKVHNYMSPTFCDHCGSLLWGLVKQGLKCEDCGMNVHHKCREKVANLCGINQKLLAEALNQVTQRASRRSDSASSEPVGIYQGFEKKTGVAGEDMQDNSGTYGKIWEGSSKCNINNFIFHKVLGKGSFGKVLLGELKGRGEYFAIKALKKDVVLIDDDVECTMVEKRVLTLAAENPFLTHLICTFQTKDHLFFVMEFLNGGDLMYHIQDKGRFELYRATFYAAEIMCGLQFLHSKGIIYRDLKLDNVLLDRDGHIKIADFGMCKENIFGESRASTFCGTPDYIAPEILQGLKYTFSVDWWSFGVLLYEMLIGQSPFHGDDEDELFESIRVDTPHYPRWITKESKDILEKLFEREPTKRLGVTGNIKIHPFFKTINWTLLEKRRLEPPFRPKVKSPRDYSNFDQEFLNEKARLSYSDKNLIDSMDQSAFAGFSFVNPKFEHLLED
T1 sequence (Q05513 whole entry): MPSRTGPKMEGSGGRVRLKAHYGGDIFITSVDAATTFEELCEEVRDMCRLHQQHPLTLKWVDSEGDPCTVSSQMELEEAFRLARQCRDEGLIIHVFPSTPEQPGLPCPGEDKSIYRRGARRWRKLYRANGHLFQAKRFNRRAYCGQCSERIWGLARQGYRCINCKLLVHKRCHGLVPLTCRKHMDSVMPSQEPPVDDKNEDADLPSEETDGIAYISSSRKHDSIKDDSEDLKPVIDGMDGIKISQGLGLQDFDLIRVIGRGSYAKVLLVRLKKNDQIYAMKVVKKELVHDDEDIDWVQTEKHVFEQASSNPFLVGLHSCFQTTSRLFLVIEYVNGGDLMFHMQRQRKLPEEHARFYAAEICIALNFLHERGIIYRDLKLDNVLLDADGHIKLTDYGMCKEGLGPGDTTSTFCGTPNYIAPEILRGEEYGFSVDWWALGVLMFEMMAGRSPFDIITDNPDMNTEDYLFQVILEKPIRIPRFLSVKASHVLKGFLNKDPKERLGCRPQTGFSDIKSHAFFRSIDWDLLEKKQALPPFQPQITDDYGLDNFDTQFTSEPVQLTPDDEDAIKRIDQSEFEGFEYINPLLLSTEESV

Q: For N[C@H](CNC(=O)C1(c2ccc(Cl)cc2)CCCC1)c1ccc(C(=O)Nc2ccncc2)cc1 [CP612], which “Inhibition of atypical PKCζ” value (PKCζ) is on record?
A: did not inhibit

Q: And the “Global Withdrawal Score (sum of all scores)” value ([1]; Morphine + CP612 10 mg/kg)?
A: 26 and 36 and 21 and 32 and 23 and 19 and 28 and 25 and 22 and 8 and 11 and 13 and 12

Q: What about the “Score: Backpedaling” value ([1]; Morphine + CP612 10 mg/kg) of the same molecule?
A: 0 and 2 and 1

Q: What about the “Score: Body shakes” value ([1]; Morphine + CP612 10 mg/kg) of the same molecule?
A: 6 and 9 and 7 and 10 and 2 and 11 and 8 and 1

Q: And the “Score: Hopping” value ([1]; Morphine + CP612 10 mg/kg)?
A: 0 and 1

Q: And the “Score: Rearing” value ([1]; Morphine + CP612 10 mg/kg)?
A: 16 and 15 and 9 and 10 and 7 and 13 and 12 and 2 and 3 and 8

Q: And the “Score: Teeth chatter” value ([1]; Morphine + CP612 10 mg/kg)?
A: 3 and 4 and 2 and 0 and 1

Q: What about the “Score: Wall climbing” value ([1]; Morphine + CP612 10 mg/kg) of the same molecule?
A: 1 and 7 and 2 and 3 and 0 and 4 and 5

Q: What about the “Global Withdrawal Score (sum of all scores)” value ([1]; Morphine + CP612 40 mg/kg) of the same molecule?
A: 17 and 23 and 18 and 11 and 8 and 4 and 10 and 13 and 9

Q: What about the “Score: Backpedaling” value ([1]; Morphine + CP612 40 mg/kg) of the same molecule?
A: 3.5 and 0 and 1

Q: What about the “Score: Body shakes” value ([1]; Morphine + CP612 40 mg/kg) of the same molecule?
A: 1 and 5 and 9 and 2 and 0

Q: What about the “Score: Hopping” value ([1]; Morphine + CP612 40 mg/kg) of the same molecule?
A: 0.5 and 0 and 1

Q: What about the “Score: Rearing” value ([1]; Morphine + CP612 40 mg/kg) of the same molecule?
A: 9 and 14 and 2 and 4 and 1 and 6 and 7 and 8

Q: What about the “Score: Teeth chatter” value ([1]; Morphine + CP612 40 mg/kg) of the same molecule?
A: 0.5 and 3 and 5 and 2 and 1 and 0

Q: What about the “Score: Wall climbing” value ([1]; Morphine + CP612 40 mg/kg) of the same molecule?
A: 2 and 1 and 0 and 3

Q: And the “Somatic signs of naloxone-precipitated morphine withdrawal” value ([1]; male DBA/2J mice, CP612 10 mg/kg i.p. (low dose))?
A: evoked signs of withdrawal

Q: And the “Effect on somatic signs of naloxone-precipitated morphine withdrawal” value ([1]; male DBA/2J mice, CP612 40 mg/kg i.p., 40 mg/kg)?
A: attenuated; also recorded: reduced; also recorded: decreased

Q: What about the remaining binding at 0.2 µM (PKCδ) of the same molecule?
A: < 10%

Q: What about the “Effect on morphine self-administration (breaking point and self-infusions)” value ([2]; CP612 30 mg/kg i.p. 18 hours prior, 30 mg/kg) of the same molecule?
A: did not modify self-administration

Q: What about the “Inf (avg last 3 days)” value ([2]; rats, morphine SA 18 h after CP612, average of last 3 days, infusions) of the same molecule?
A: 8 and 12
